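Test compounds were applied to cells in 96-well plates for 48 hours at 5 doses. The concentration for 50% growth inhibition is given as GI50. TGI marks complete inhibition of growth.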
Experiments:
Assay in all cases: DTP human tumour cell line panel, 48 h; in the data active = GI50 below about 0.43 µM; inactive = the rest
786-0 renal = test system: 786-0 renal
A498 renal = test system: A498 renal
A549 NSCLC = test system: A549 NSCLC
ACHN renal = test system: ACHN renal
BT-549 breast = test system: BT-549 breast
CAKI-1 renal = test system: CAKI-1 renal
CCRF-CEM leukemia = test system: CCRF-CEM leukemia
COLO 205 colon = test system: COLO 205 colon
DU-145 prostate = test system: DU-145 prostate
EKVX NSCLC = test system: EKVX NSCLC
HCC-2998 colon = test system: HCC-2998 colon
HCT-116 colon = test system: HCT-116 colon
HCT-15 colon = test system: HCT-15 colon
HOP-62 NSCLC = test system: HOP-62 NSCLC
HS 578T breast = test system: HS 578T breast
HT29 colon = test system: HT29 colon
IGROV1 ovarian = test system: IGROV1 ovarian
K-562 leukemia = test system: K-562 leukemia
KM12 colon = test system: KM12 colon
LOX IMVI melanoma = test system: LOX IMVI melanoma
MALME-3M melanoma = test system: MALME-3M melanoma
MCF7 breast = test system: MCF7 breast
MDA-MB-231 breast = test system: MDA-MB-231 breast
MDA-MB-435 = test system: MDA-MB-435
MOLT-4 leukemia = test system: MOLT-4 leukemia
NCI-H226 lung = test system: NCI-H226 lung
NCI-H23 lung = test system: NCI-H23 lung
NCI-H460 lung = test system: NCI-H460 lung
NCI-H522 lung = test system: NCI-H522 lung
NCI/ADR-RES ovarian = test system: NCI/ADR-RES ovarian
OVCAR-3 ovarian = test system: OVCAR-3 ovarian
OVCAR-4 ovarian = test system: OVCAR-4 ovarian
OVCAR-5 ovarian = test system: OVCAR-5 ovarian
OVCAR-8 ovarian = test system: OVCAR-8 ovarian
PC-3 prostate = test system: PC-3 prostate
RPMI-8226 leukemia = test system: RPMI-8226 leukemia
RXF 393 renal = test system: RXF 393 renal
SF-268 CNS = test system: SF-268 CNS
SF-295 CNS = test system: SF-295 CNS
SF-539 CNS = test system: SF-539 CNS
SK-MEL-2 melanoma = test system: SK-MEL-2 melanoma
SK-MEL-28 melanoma = test system: SK-MEL-28 melanoma
SK-MEL-5 melanoma = test system: SK-MEL-5 melanoma
SK-OV-3 ovarian = test system: SK-OV-3 ovarian
SN12C renal = test system: SN12C renal
SNB-19 CNS = test system: SNB-19 CNS
SNB-75 CNS = test system: SNB-75 CNS
SR leukemia = test system: SR leukemia
SW-620 colon = test system: SW-620 colon
T-47D breast = test system: T-47D breast
TK-10 renal = test system: TK-10 renal
U251 CNS = test system: U251 CNS
UACC-257 melanoma = test system: UACC-257 melanoma
UACC-62 melanoma = test system: UACC-62 melanoma
UO-31 renal = test system: UO-31 renal

COc1c(OC2OC(C)C(O)C(O)C2O)c(OC)c2oc(-c3ccc(O)cc3)cc(=O)c2c1O (stereo not given)
38.4 µM: TGI (UACC-62 melanoma)
81.4 µM: TGI (NCI-H460 lung)
87.1 µM: TGI (SNB-75 CNS)
90.5 µM: TGI (SF-539 CNS)
57.1 µM: TGI (NCI-H23 lung)
78.5 µM: TGI (MDA-MB-435)
64.4 µM: TGI (OVCAR-3 ovarian)
inactive: GI50 (786-0 renal) 50.7 µM | GI50 (A498 renal) 35.4 µM | GI50 (A549 NSCLC) 32.3 µM | GI50 (ACHN renal) 30.7 µM | GI50 (BT-549 breast) 25.4 µM | GI50 (CAKI-1 renal) 27.6 µM | GI50 (CCRF-CEM leukemia) 31.4 µM | GI50 (COLO 205 colon) 29.3 µM | GI50 (DU-145 prostate) 24.1 µM | GI50 (EKVX NSCLC) 38.4 µM | GI50 (HCC-2998 colon) 37.2 µM | GI50 (HCT-116 colon) 32.4 µM | GI50 (HCT-15 colon) 40.3 µM | GI50 (HOP-62 NSCLC) 35.1 µM | GI50 (HS 578T breast) 29.8 µM | GI50 (HT29 colon) 30 µM | GI50 (IGROV1 ovarian) 18.1 µM | GI50 (K-562 leukemia) 26.2 µM | GI50 (KM12 colon) 39.7 µM | GI50 (LOX IMVI melanoma) 27.9 µM | GI50 (MALME-3M melanoma) 34.2 µM | GI50 (MCF7 breast) 34.4 µM | GI50 (MDA-MB-231 breast) 16.5 µM | GI50 (MDA-MB-435) 29.1 µM | GI50 (MOLT-4 leukemia) 15.4 µM | GI50 (NCI-H226 lung) 30.6 µM | GI50 (NCI-H23 lung) 20.6 µM | GI50 (NCI-H460 lung) 27.7 µM | GI50 (NCI-H522 lung) 24.2 µM | GI50 (NCI/ADR-RES ovarian) 87.2 µM | GI50 (OVCAR-3 ovarian) 21.5 µM | GI50 (OVCAR-4 ovarian) 29.7 µM | GI50 (OVCAR-5 ovarian) > 100 µM | GI50 (OVCAR-8 ovarian) 28 µM | GI50 (PC-3 prostate) 34.8 µM | GI50 (RPMI-8226 leukemia) 28.2 µM | GI50 (RXF 393 renal) 23.8 µM | GI50 (SF-268 CNS) 33.1 µM | GI50 (SF-295 CNS) 36.4 µM | GI50 (SF-539 CNS) 34.3 µM | GI50 (SK-MEL-2 melanoma) 47.4 µM | GI50 (SK-MEL-28 melanoma) 35.4 µM | GI50 (SK-MEL-5 melanoma) 35.4 µM | GI50 (SK-OV-3 ovarian) 86.3 µM | GI50 (SN12C renal) 27.8 µM | GI50 (SNB-19 CNS) 45.2 µM | GI50 (SNB-75 CNS) 20.6 µM | GI50 (SR leukemia) 19.7 µM | GI50 (SW-620 colon) 35.7 µM | GI50 (T-47D breast) 22.3 µM | GI50 (TK-10 renal) 72.2 µM | GI50 (U251 CNS) 30.2 µM | GI50 (UACC-257 melanoma) 3.97 µM | GI50 (UACC-62 melanoma) 16.6 µM | GI50 (UO-31 renal) 22.8 µM
52.8 µM: TGI (DU-145 prostate)
28.1 µM: TGI (UACC-257 melanoma)
71.8 µM: TGI (MDA-MB-231 breast)
64.5 µM: TGI (NCI-H522 lung)
> 100 µM: TGI (786-0 renal) | TGI (A498 renal) | TGI (A549 NSCLC) | TGI (ACHN renal) | TGI (CAKI-1 renal) | TGI (CCRF-CEM leukemia) | TGI (COLO 205 colon) | TGI (EKVX NSCLC) | TGI (HCC-2998 colon) | TGI (HCT-116 colon) | TGI (HCT-15 colon) | TGI (HOP-62 NSCLC) | TGI (HS 578T breast) | TGI (HT29 colon) | TGI (K-562 leukemia) | TGI (KM12 colon) | TGI (LOX IMVI melanoma) | TGI (MALME-3M melanoma) | TGI (MCF7 breast) | TGI (MOLT-4 leukemia) | TGI (NCI-H226 lung) | TGI (NCI/ADR-RES ovarian) | TGI (OVCAR-4 ovarian) | TGI (OVCAR-5 ovarian) | TGI (OVCAR-8 ovarian) | TGI (PC-3 prostate) | TGI (RPMI-8226 leukemia) | TGI (SF-268 CNS) | TGI (SF-295 CNS) | TGI (SK-MEL-2 melanoma) | TGI (SK-MEL-28 melanoma) | TGI (SK-MEL-5 melanoma) | TGI (SK-OV-3 ovarian) | TGI (SN12C renal) | TGI (SNB-19 CNS) | TGI (SW-620 colon) | TGI (T-47D breast) | TGI (TK-10 renal) | TGI (U251 CNS) | TGI (UO-31 renal)
92.2 µM: TGI (IGROV1 ovarian)
72.6 µM: TGI (BT-549 breast)
93.5 µM: TGI (SR leukemia)
66.5 µM: TGI (RXF 393 renal)

Source: PubChem BioAssay (NCI)
